A short description of this test: Inhibition of Src-transfected 3T3 cell proliferation.
Turning to `COc1cnc(Cl)c(Nc2ncnc3cc(OCCN4CCN(C(C)=O)CC4)cc(OC(C)C)c23)n1` [1-(4-(2-(4-(3-chloro-6-methoxypyrazin-2-ylamino)-5-isopropoxyquinazolin-7-yloxy)ethyl)piperazin-1-yl)ethanone], the IC50 (usually the concentration that inhibits the measured activity by half) was determined as 70 nM.
Compound `COc1ccc(Cl)c(Nc2ncnc3cc(OCCN4CCN(C(C)=O)CC4)cc(OC(C)C)c23)n1` [1-(4-(2-(4-(3-chloro-6-methoxypyridin-2-ylamino)-5-isopropoxyquinazolin-7-yloxy)ethyl)piperazin-1-yl)ethanone] showed an IC50 of 60 nM.
The compound `COc1ccc(Cl)c(Nc2ncnc3cc(OCCCN4CCN(C(C)=O)CC4)cc(OC(C)C)c23)n1` [1-(4-(3-(4-(3-chloro-6-methoxypyridin-2-ylamino)-5-isopropoxyquinazolin-7-yloxy)propyl)piperazin-1-yl)ethanone] had an IC50 of 20 nM.
As to `COc1ccc(Cl)c(Nc2ncnc3cc(OCCCN4CCOCC4)cc(OC(C)C)c23)c1` [N-(2-chloro-5-methoxyphenyl)-7-[3-(morpholin-4-yl)propoxy]-5-(propan-2-yloxy)quinazolin-4-amine], the concentration for half-maximal inhibition (IC50) is 150 nM.
`COc1cnc(Cl)c(Nc2ncnc3cc(OCCCN4CCOCC4)cc(OC(C)C)c23)c1` [N-(2-chloro-5-methoxypyridin-3-yl)-5-isopropoxy-7-(3-morpholinopropoxy)quinazolin-4-amine] displayed an IC50 of 150 nM.
`COc1cnc(Cl)c(Nc2ncnc3cc(OCCCN4CCOCC4)cc(OC4CCOCC4)c23)c1` [N-(2-chloro-5-methoxypyridin-3-yl)-7-(3-morpholinopropoxy)-5-(tetrahydro-2H-pyran-4-yloxy)quinazolin-4-amine]: 140 nM corresponded to half-maximal inhibition (IC50).
For the compound `COc1ccc(Cl)c(Nc2ncnc3cc(OCCN4CCCC4)cc(OC(C)C)c23)n1` [N-(3-chloro-6-methoxypyridin-2-yl)-5-isopropoxy-7-(2-(pyrrolidin-1-yl)ethoxy)quinazolin-4-amine], half-maximal inhibition (IC50) was put at 120 nM.
`COc1ccc(Cl)c(Nc2ncnc3cc(OCCN4CCOCC4)cc(OC(C)C)c23)n1` [N-(3-chloro-6-methoxypyridin-2-yl)-5-isopropoxy-7-(2-morpholinoethoxy)quinazolin-4-amine] registered an IC50 of 120 nM.
In the case of `COc1ccc(Cl)c(Nc2ncnc3cc(OCCCN4CCN(C)CC4)cc(OC(C)C)c23)n1` [N-(3-chloro-6-methoxypyridin-2-yl)-5-isopropoxy-7-(3-(4-methylpiperazin-1-yl)propoxy)quinazolin-4-amine], inhibition was half-maximal at 60 nM (IC50).
In the case of `COc1ccc(Cl)c(Nc2ncnc3cc(OCCCN4CCCC4)cc(OC(C)C)c23)n1` [N-(3-chloro-6-methoxypyridin-2-yl)-5-isopropoxy-7-(3-(pyrrolidin-1-yl)propoxy)quinazolin-4-amine] it was 70 nM.
In the case of `COc1ccc(Cl)c(Nc2ncnc3cc(OCCCN4CCOCC4)cc(OC(C)C)c23)n1` [N-(3-chloro-6-methoxypyridin-2-yl)-5-isopropoxy-7-(3-morpholinopropoxy)quinazolin-4-amine] it was 30 nM; in that of `COc1ccc(Cl)c(Nc2ncnc3cc(OCCCN4CCOCC4)cc(OC4CCOCC4)c23)n1` [N-(3-chloro-6-methoxypyridin-2-yl)-7-(3-morpholinopropoxy)-5-(tetrahydro-2H-pyran-4-yloxy)quinazolin-4-amine], 70 nM; in that of `COc1cc(Nc2ncnc3cc(OCCCN4CCOCC4)cc(OC(C)C)c23)c(Cl)cn1` [N-(5-chloro-2-methoxypyridin-4-yl)-5-isopropoxy-7-(3-morpholinopropoxy)quinazolin-4-amine], 350 nM.

The values above are taken from BindingDB's records for doi:10.1016/j.bmcl.2005.08.106 (Astrazeneca, 2005).
